Measurements: publication PMC11874750, “Inhibitory effect of fermented avocado seed extract (Persea americana Mill. cv. Hass) on polyphenol oxidase and its application as anti-browning agent in avocado, apple, and banana pulps” (Heliyon, 2025)

Tested on: T1, polyphenol oxidase (PPO), crude PPO extract of Hass avocado pulp
T1 construct: isoenzyme not identified
Assay: absorbance at […] nm, Lineweaver-Burk
Format: biochemical, Persea americana
Settings: phosphate buffer pH 7.0, catechol 2.7-44.5 mM, also printed as 0.1627 g/L, no inhibitor

Oc1ccccc1O [catechol]
Km: 1480 µM
